Measurements published in patent US6150359A, “Naphthyridinones for inhibiting protein tyrosine kinase and cell cycle kinase mediated cellular proliferation” (Warner-Lambert Company, priority 2000, dated 2000).

Key:
[1] = system: SW-620 cells; test: Human Colon Carcinoma Growth Delay Assay, SW-620; assay type: cell-based; conditions: 72 h, SW-620, 3 days
Procedure: (§1) Human Colon Carcinoma Growth Delay Assay. Human colon carcinoma cells are seeded into 96-well tissue culture plates in a final volume of 180 μL of 10% fetal bovine serum containing growth media and allowed to incubate overnight (37° C., 5% CO2, 95% air). Cells of the SW-620 cell line are seeded at 1.0-1.5×10^4 cells per well. Cells of the HCT-8 and HT-29 cell lines are seeded at 2-4×10^3 cells per well. Serially diluted drug solutions are prepared in growth medium at 10 times concentration; 20 μL of these solutions are added to duplicate wells and incubated with the cells for 3 days in a cell culture incubator. At the end of the incubation period, cells are fixed with 100 μL per well of 10% trichloroacetic acid after removing the drug/culture medium. The plates are washed five times with tap water and stained with 100 μL per well of 0.075% sulfrhodamine B in 1% acetic acid for 10 minutes. The plates are rinsed four times and allowed to air dry. The stain in the wells are solubilized by the addition of 10 mM unbuffered Tris base and the absorbance read using a microtiter plate optical reader. Inhibition of cell growth is calculated from absorbance data of the treated cells compared to untreated control cells.

[2] = target: Protein kinase C (PKC); test: Protein kinase C (PKC) assay; assay type: biochemical; conditions: rat brain preparation
Procedure: Other Kinases. c-Src kinase is purified from baculovirus infected insect cell lysates using an antipeptide monoclonal antibody directed against the N-terminal 2-17 amino acids as described previously by Fry, et al., Anticancer Drug Design, 1994;9:331-351. Protein kinase C (PKC.) is obtained as a rat brain preparation from Promega.
Other Kinases. An assay using the intracellular kinase domains of insulin receptor (INSr) is performed as described for the EGF receptor except that 10 mM manganese chloride is included in the reaction. The PKC assay is performed as previously described by Martiny-Baron, et al., J. Biol. Chem., 1993;268:9194-9197.

[3] = target: MAP Kinase Pathway (GST-MEK / GST-MAPK); test: Cascade Assay for Inhibitors of the MAP Kinase Pathway (APK Assay); assay type: biochemical; conditions: 50 μM [γ32P]ATP; compounds assessed at 10 μM
Procedure: Cascade Assay for Inhibitors of the MAP Kinase Pathway (APK Assay)
Incorporation of ^32 P into myelin basic protein (MBP) is assayed in the presence of a glutathione; S-transferase fusion protein containing p44MAP kinase (GST-MAPK) and a glutathione; S-transferase fusion protein containing p45MEK (GST-MEK). The assay solution contains 20 mM HEPES, pH 7.4, 10 mM magnesium chloride, 1 mM manganese chloride, 1 mM EGTA, 50 μM [γ^32 P]ATP, 10 μg GST-MEK, 0.5 μg GST-MAPK and 40 μg MBP in a final volume of 100 μL. Reactions are stopped after 20 minutes by addition of trichloroacetic acid and filtered through a GF/C filter mat. ^32 P retained on the filter mat is determined using a 1205 betaplate. Compounds are assessed at 10 μM for ability to inhibit incorporation of ^32 P.
To ascertain whether compounds are inhibiting GST-MEK or GST MAPK, two additional protocols are employed. In the first protocol, compounds are added to tubes containing GST-MEK, followed by addition of GST-MAPK, MBP and [γ^32 P]ATP. In the second protocol, compounds are added to tubes containing both GST-MEK and GST-MAPK, followed by MBP and [γ^32 P]ATP.
Compounds that show activity in both protocols are scored as MAPK inhibitors, while compounds showing activity in only the first protocol are scored as MEK inhibitors.

[4] = target: T1, FGFr (human FGF-1 (flg) receptor tyrosine kinase) (Homo sapiens, UniProt P11362); test: FGFr tyrosine kinase assay, 32P incorporation into glutamate-tyrosine copolymer; assay type: biochemical
T1 construct: PCR primers are designed to amplify a fragment of DNA that codes for the intracellular tyrosine kinase domain; made in house; host or cells: Sf9 insect cells (baculovirus), cell lysate
T1 sequence (P11362 478-767 limits assumed): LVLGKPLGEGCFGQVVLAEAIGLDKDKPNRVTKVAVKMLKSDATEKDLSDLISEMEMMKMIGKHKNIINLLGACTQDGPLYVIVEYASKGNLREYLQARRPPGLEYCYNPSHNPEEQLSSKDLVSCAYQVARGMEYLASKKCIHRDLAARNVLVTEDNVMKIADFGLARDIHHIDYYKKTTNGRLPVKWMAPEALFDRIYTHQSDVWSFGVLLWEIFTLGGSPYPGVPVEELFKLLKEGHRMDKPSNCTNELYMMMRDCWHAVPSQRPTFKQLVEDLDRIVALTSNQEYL
Procedure: (§2) Platelet Derived Growth Factor Receptor (PDGFr) and Fibroblast Growth Factor Receptor (FGFr). Full length cDNAs for the mouse PDGF-β and human FGF-1 (flg) receptor tyrosine kinases were obtained from J. Escobedo and are prepared as described in J. Biol. Chem., 1991;262:1482-1487. PCR primers are designed to amplify a fragment of DNA that codes for the intracellular tyrosine kinase domain. The fragment is melded into a baculovirus vector, cotransfected with AcMNPV DNA, and the recombinant virus isolated. SF9 insect cells are infected with the virus to overexpress the protein, and the cell lysate is used for the assay.
(§3) PDGFr and FGFr. […] Briefly, to each well is added 82.5 μL of incubation buffer containing 25 mM Hepes (pH 7.0), 150 mM NaCl, 0.1% Triton X-100, 0.2 mM PMSF, 0.2 mM sodium vanadate, 10 mM manganese chloride, and 750 μg/mL of poly (4:1) glutamate-tyrosine followed by 2.5 μL of inhibitor and 5 μL of enzyme lysate (7.5 μg/μL FGFR-TK or 6.0 μg/μL PDGFR-TK) to initiate the reaction. Following a 10 minute incubation at 25° C., 10 μL of [γ^32 P]ATP (0.4 μCi plus 50 μM ATP) is added to each well, and samples are incubated for an additional 10 minutes at 25° C. The reaction is terminated by the addition of 100 μL of 30% trichloroacetic acid (TCA) containing 20 mM sodium pyrophosphate and precipitation of material onto glass fiber filter mats (Wallac). […] Nonspecific activity is defined as radioactivity retained on the filters following incubation of samples with buffer alone; (no enzyme). Specific enzymatic activity is defined as total activity (enzyme plus buffer) minus nonspecific activity.

[5] = system: HCT-8 cells; test: Human Colon Carcinoma Growth Delay Assay, HCT-8; assay type: cell-based; conditions: 72 h, HCT-8, 3 days
Procedure: as §1

[6] = target: T2, PDGFr (mouse PDGF-β receptor tyrosine kinase) (Mus musculus, UniProt P05622); test: PDGFr tyrosine kinase assay, 32P incorporation into glutamate-tyrosine copolymer; assay type: biochemical; conditions: 50 μM ATP
T2 construct: PCR primers are designed to amplify a fragment of DNA that codes for the intracellular tyrosine kinase domain; made in house; host or cells: Sf9 insect cells (baculovirus), cell lysate
T2 sequence (P05622 599-961 limits assumed): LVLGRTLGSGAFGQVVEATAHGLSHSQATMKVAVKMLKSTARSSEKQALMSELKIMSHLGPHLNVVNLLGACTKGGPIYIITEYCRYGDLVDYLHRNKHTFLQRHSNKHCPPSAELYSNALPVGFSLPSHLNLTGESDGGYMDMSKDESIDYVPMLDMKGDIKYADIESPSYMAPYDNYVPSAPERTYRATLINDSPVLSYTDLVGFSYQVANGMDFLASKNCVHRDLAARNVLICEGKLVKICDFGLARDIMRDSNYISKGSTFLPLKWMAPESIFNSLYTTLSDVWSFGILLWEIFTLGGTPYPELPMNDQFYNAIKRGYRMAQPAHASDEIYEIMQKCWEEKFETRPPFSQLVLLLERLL
Procedure: as §2, §3

[7] = system: HT-29 cells; test: Human Colon Carcinoma Growth Delay Assay, HT-29; assay type: cell-based; conditions: 72 h, HT-29, 3 days
Procedure: as §1

Row | Structure (SMILES) | IC50 [1] [nM] | IC50 [2] [nM] | IC50 [3] [nM] | IC50 [4] [nM] | IC50 [5] [nM] | IC50 [6] [nM] | IC50 [7] [nM]
1 | CCN(CC)CCCCNc1cc2c(cn1)cc(-c1c(Cl)cccc1Cl)c(=O)n2C [Example F, 3-(2,6-dichlorophenyl)-7-[4-(diethylamino)butylamino]-1-methyl-1H-[1,6]naphthyridin-2-one] | 7200 | > 50000 | > 10000 | 70 | 2300 | 420 | 1500
2 | CN1CCN(CCCNc2cc3c(cn2)cc(-c2c(Cl)cccc2Cl)c(=O)n3C)CC1 [Example H, 3-(2,6-dichlorophenyl)-1-methyl-7-[3-(4-methylpiperazin-1-yl)propylamino]-1H-[1,6]naphthyridin-2-one] | 5200 | < 50000 | 10000 | 50 | 2800 | 890 | 2200
3 | CCN(CC)CCOc1ccc(Nc2cc3c(cn2)cc(-c2c(Cl)cccc2Cl)c(=O)n3C)cc1 [Example P, 3-(2,6-dichlorophenyl)-7-[(4-(2-(diethylamino)ethoxy)phenyl)amino]-1-methyl-1H-[1,6]naphthyridin-2-one] | 6700 | > 50000 |  |  | 2800 | 90 | 800
4 | CN1CCN(CCOc2ccc(Nc3cc4c(cn3)cc(-c3c(Cl)cccc3Cl)c(=O)n4C)cc2)CC1 [Example S, 3-(2,6-dichlorophenyl)-1-methyl-7-[(4-(2-(4-methylpiperazin-1-yl)ethoxy)phenyl)amino]-1H-[1,6]naphthyridin-2-one] | 6800 |  |  |  | 5200 | 340 | 900
